Reference: the OPERA property sets (Mansouri et al. 2018)

Compound CC(C)OC(=O)n1cnc(CC(NC(=O)C2CCC(=O)N2)C(=O)N2CCCC2C(N)=O)c1 (stereo not drawn) has a logP of -0.8.
In the case of CC(=O)Oc1ccc([N+](=O)[O-])cc1, the logP is reported as 1.5.
With COc1cc2c(c(OC)c1OC)-c1ccc(N)c(=O)cc1[C@@H](NC(C)=O)CC2 the logP was 0.3.
Work on O=[N+]([O-])c1ncn(CC(O)CF)n1 (stereo not drawn) yielded a logP of -0.59.
For CC(O)CO (stereo not drawn), the logP was -0.92.
Compound CN(c1ccccn1)S(=O)(=O)c1ccc(N)cc1 has a logP of 1.3.
In the case of CC(C)c1ccc(NC(=O)N(C)C)cc1, the logP is reported as 2.87.
For CCOP(=O)(OCC)OCC, the logP was 0.8.
In the case of Nc1ccc(S(=O)(=O)Nc2nccs2)cc1, the logP is reported as 0.05.
In the case of CN(C)C(CSS(=O)(=O)c1ccccc1)CSS(=O)(=O)c1ccccc1, the logP is reported as 3.36.
With c1ccc(P(c2ccccc2)c2ccccc2)cc1 the logP was 5.69.
In the case of ClC(Cl)(Cl)c1ccc(C(Cl)(Cl)Cl)cc1, the logP is reported as 4.62.
CCCCC(=O)O[C@]1(C(=O)CO)[C@@H](C)C[C@H]2[C@@H]3CCC4=CC(=O)C=C[C@]4(C)[C@@]3(F)[C@@H](O)C[C@@]21C gave a logP of 3.6.
Compound COc1ccc(C(c2ccc(OC)cc2)C(Cl)(Cl)Cl)cc1 has a logP of 5.08.
Work on NNC(=O)c1ccccc1[N+](=O)[O-] yielded a logP of -0.54.
In the case of ClCCCCl, the logP is reported as 2.
Compound O=S1(=O)Nc2ccccc2N1 has a logP of 1.12.
FC(F)(F)c1ccc2cccnc2c1 gave a logP of 3.02.
COC(=O)Cc1cccs1 showed a logP of 1.51.
For FC(F)(F)C(F)(F)F, the logP was 2.
O=C(O)Cc1ccccc1Oc1ccc(Cl)cc1Cl showed a logP of 4.8.
COP(=O)(OC)SCn1nnc2ccccc2c1=O gave a logP of 0.78.
CS(=O)(=O)c1ccc(C(O)C(CO)NC(=O)C(Cl)Cl)cc1 (stereo not drawn) showed a logP of -0.27.
CCCC(=NOCC)C1C(=O)CC2(CC(C)CC(C)C2)OC1=O (stereo not drawn) showed a logP of 4.48.
With CCC(=O)OC1(C(=O)CCl)C(C)CC2C3CCC4=CC(=O)C=CC4(C)C3(Cl)C(O)CC21C (stereo not drawn) the logP was 3.28.
Compound CCc1ccco1 has a logP of 2.4.
For O=C(O)c1cccc(Oc2ccccc2)c1, the logP was 3.91.
C=C(C)C(=O)OCCO gave a logP of 0.47.
O=C(O)c1ccc(Cl)cc1[N+](=O)[O-] gave a logP of 2.08.
Compound CC(=O)OCC(=O)[C@@]1(O)CC[C@H]2[C@@H]3CCC4=CC(=O)CC[C@]4(C)[C@H]3C(=O)C[C@@]21C has a logP of 2.1.
Work on CN(O)C(N)=O yielded a logP of -0.46.
With CNP(=O)(OC)Oc1ccc(OC)cc1 (stereo not drawn) the logP was 1.06.
In the case of CCCOc1cn[nH]c1, the logP is reported as 1.42.
For Cc1ncc([N+](=O)[O-])n1CCCl, the logP was 0.88.
Work on CC(C)C(Br)C(=O)NC(N)=O (stereo not drawn) yielded a logP of 1.14.
In the case of Cc1[nH]cnc1CSCCNC1=NS(=O)(=O)CCN1, the logP is reported as -0.74.
Compound COc1ccc(NC(=O)NN=Cc2ccc[nH]2)cc1 has a logP of 2.67.
Compound Cc1ccno1 has a logP of 0.45.
For CCC12CC3CC(CC(N)(C3)C1)C2, the logP was 3.4.
For CC(C)c1ccc(C(N)=O)cc1, the logP was 2.14.
For CN(C)N=Nc1cccc(Cl)c1, the logP was 3.44.
Work on Nc1cc(Cl)cc(Cl)c1 yielded a logP of 2.9.
For CCOC(=O)Oc1cccc2cccnc12, the logP was 1.73.
Compound C=C(C=O)CC has a logP of 1.24.
Compound CCOC(=O)C(SP(=S)(OC)OC)c1ccccc1 (stereo not drawn) has a logP of 3.69.
COc1ccccc1NCCO gave a logP of 1.5.
In the case of CC(=O)c1ccnc2cc(Cl)ccc12, the logP is reported as 2.62.
With Cc1ccc(NC2=NCCN2)c(Cl)c1 the logP was 1.8.
In the case of COc1cc2c(c(OC)c1O)-c1ccc(OC)c(=O)cc1[C@@H](NC(C)=O)CC2, the logP is reported as 0.48.
Work on CC(C)(C)C(=O)c1ccccc1 yielded a logP of 3.
For COC(=O)c1ccccn1, the logP was 0.36.
For Cc1ccc(C)n1N(C)c1ccc(N2CCOCC2)nn1, the logP was 2.21.
With Cc1ccc(N)c(C)c1 the logP was 1.68.
O=C(O)Cc1ccccc1O gave a logP of 0.85.
Compound CC1CCCC(C)N1 (stereo not drawn) has a logP of 1.53.
With O=CO the logP was -0.54.
C[C@]12CC[C@@H]3c4ccc(O)cc4CC[C@H]3[C@@H]1C[C@@H](O)[C@@H]2O showed a logP of 2.45.
For OCCBr, the logP was 0.23.
In the case of CCc1ccccc1S(I)=C(N(C)C)N(C)C (stereo not drawn), the logP is reported as 0.32.
With OCCN1CCN(CCCN2c3ccccc3Sc3ccc(Cl)cc32)CC1 the logP was 4.2.
In the case of CN(C(=S)c1ccccc1)c1ccccc1, the logP is reported as 3.12.
In the case of CCN(CC)CCNC(=O)c1ccccc1OC, the logP is reported as 1.98.
For CC1(C)Cc2cccc(O)c2O1, the logP was 2.08.
With NS(=O)(=O)c1cc2c(cc1Cl)NC(CC1CCCC1)NS2(=O)=O (stereo not drawn) the logP was 1.27.
In the case of CC(=O)OC1CCCCC1NC(=O)N(CCCl)N=O (stereo not drawn), the logP is reported as 1.98.
NCCCCCc1ccncc1 gave a logP of 1.4.
For CS(=O)(=O)OCCCCOS(C)(=O)=O, the logP was -0.52.
Oc1ccc(I)cc1 gave a logP of 2.91.
For CCOc1ccccc1, the logP was 2.51.
N#CCCl gave a logP of 0.45.
COCC1COC(Cn2cncn2)(c2ccc(Cl)cc2Cl)O1 (stereo not drawn) gave a logP of 2.21.
Compound COc1cccc(NC(=O)N(CCCl)N=O)c1 has a logP of 2.66.
In the case of CCCCOC(C)=O, the logP is reported as 1.78.
With OCc1cccc(Cl)c1 the logP was 1.94.
With CCCCCCCCOC(=O)n1cnc(CC(NC(=O)C2CCC(=O)N2)C(=O)N2CCCC2C(N)=O)c1 (stereo not drawn) the logP was 1.82.
Cn1cc(C(=O)O)c2ccccc21 gave a logP of 2.
CCO[Si](OCC)(c1ccccc1)c1ccccc1 gave a logP of 4.92.
Work on CCCCBr yielded a logP of 2.75.
CN(C)C(N(C)C)=S(I)c1ccc(Cl)cc1Cl (stereo not drawn) gave a logP of 0.47.
With O=C(O)Cc1sc(-c2ccccc2)nc1-c1ccc(Cl)cc1 the logP was 5.19.
With CCC(=O)C(CS(=O)(=O)c1ccccc1)c1ccc(OC)cc1 (stereo not drawn) the logP was 2.18.
For CC(=O)Nc1cccc2nccnc12, the logP was 1.06.
Work on O=C(O)COc1ccccc1 yielded a logP of 1.34.
CCOC(=O)CC(=O)c1ccccc1 showed a logP of 1.87.
In the case of CCCC(=O)OCC(O)CO (stereo not drawn), the logP is reported as -0.17.
Work on CCCCCCOC(=O)C(CC)C(CO)Cc1cncn1C (stereo not drawn) yielded a logP of 2.71.
Work on c1ccc2nccnc2c1 yielded a logP of 1.32.
Compound O=C(O)Cc1c(Cl)ccc(Cl)c1Cl has a logP of 3.2.
Work on CCCCCOc1ccc(O)cc1 yielded a logP of 3.5.
COc1cccc(Cl)c1 showed a logP of 2.98.
With Cc1ccnc2c(O)cccc12 the logP was 2.41.
Work on COCc1ccc(C(=O)O)cc1 yielded a logP of 1.76.
NCCCCc1ccccc1 showed a logP of 2.4.
In the case of OCC(Cl)Cl, the logP is reported as 0.37.
With O=[N+]([O-])C=Cc1ccsc1 the logP was 1.94.
Compound CCCCOCc1ccccc1NC(=O)OCCN1CCCCC1 has a logP of 3.94.
O=[N+]([O-])c1ccc(O)c(O)c1 showed a logP of 1.66.
CCCN(CCC)CCC gave a logP of 2.79.
In the case of CCCCNCc1cccnc1, the logP is reported as 1.34.
In the case of Cc1ccc2nc(N)[nH]c2c1, the logP is reported as 1.11.
With CC(=O)OC1C(=O)C2(C)C(O)CC3OCC3(OC(C)=O)C2C(OC(=O)c2ccccc2)C(C)(O)C2(C)CC(OC(=O)C(C)O)C(C)=C12 (stereo not drawn) the logP was 1.52.
For CCC(O)CC, the logP was 1.21.
With O=C(O)CCCc1ccccc1 the logP was 2.42.
Work on O=Cc1cccc([N+](=O)[O-])c1 yielded a logP of 1.47.
Compound CC(C)(C)NCCO has a logP of 0.41.
Cc1cccc(S(N)(=O)=O)c1 gave a logP of 0.85.
NC(C(=O)O)c1ccccc1 (stereo not drawn) showed a logP of -1.7.
In the case of Oc1cc(Cl)c(Cl)cc1Cl, the logP is reported as 3.72.
Work on CCCC(=O)CC(=O)CCC yielded a logP of 2.23.
In the case of O=[N+]([O-])c1ccc2ncccc2c1, the logP is reported as 1.84.
CC1(C)C=Cc2ccccc2O1 showed a logP of 3.31.
Compound COC1C(OC(C)=O)CC(=O)OC(C)CC=CC=CC(O)C(C)CC(CC=O)C1OC1OC(C)C(OC2CC(C)(O)C(OC(=O)CC(C)C)C(C)O2)C(N(C)C)C1O (stereo not drawn) has a logP of 2.39.
NNS(=O)(=O)c1ccccc1 showed a logP of -0.14.
N#CC(=Cc1ccccc1)C(N)=O gave a logP of 1.56.
In the case of Cc1ccc(C)c2ccccc12, the logP is reported as 4.37.
In the case of CC(=O)C(Cc1ccccc1)C(C)=O, the logP is reported as 1.89.
Work on CCC1(C2=CCCCCC2)C(=O)NC(=O)NC1=O yielded a logP of 2.03.
O=C1C=C(N2CC2)C(=O)C(N2CC2)=C1N1CC1 showed a logP of -0.13.
Work on O=C(O)Cc1cccc(C(=O)O)c1 yielded a logP of 1.14.
NNC(=O)c1ccnc(Cl)c1 gave a logP of 0.11.
NCC(F)(F)F gave a logP of 0.24.
O=C1C=CC(=O)N1 gave a logP of -0.29.
CCOC(=O)C(C#N)=Cc1ccccc1 gave a logP of 2.43.
O=C(CO)NCc1ccccc1 showed a logP of 0.55.
For O=C(O)c1cc(Cl)ccc1[N+](=O)[O-], the logP was 2.13.
NC(=O)C1CCCN1C(=O)C(Cc1cn(C(=O)OCc2ccccc2)cn1)NC(=O)C1CCC(=O)N1 (stereo not drawn) showed a logP of -0.11.
Compound NS(=O)(=O)c1ccc(Br)cc1 has a logP of 1.36.
In the case of CCN(CC)CCNC(=O)c1cc(F)c(N)cc1OC, the logP is reported as 2.28.
CNc1c(Cl)cccc1Cl gave a logP of 2.91.
For O=NN1CCN(N=O)CC1, the logP was -0.85.
COc1ccc2cc(C(C)C(=O)OCC(=O)N(C)CC(N)=O)ccc2c1 (stereo not drawn) showed a logP of 1.37.
For O=C(Oc1ccccc1)c1ccccc1, the logP was 3.59.
For Nc1ccc(C(=O)Oc2cccc(C(F)(F)F)c2)c(O)c1, the logP was 3.61.
c1ccc(Cn2nccn2)cc1 showed a logP of 1.56.
Compound c1cncc([C@@H]2CCCN2)c1 has a logP of 0.17.
With CCCCC[N+](=O)[O-] the logP was 2.01.
O=C(NP(=O)(N1CC1)N1CC1)c1cccc(Br)c1 showed a logP of 1.43.
In the case of CC(C)N(Cc1cccnc1)C(C)C, the logP is reported as 2.27.
With Nc1ccc(OC(=O)c2ccc(N)cc2O)cc1 the logP was 2.04.
O=C(O)CCCOc1ccc(Cl)cc1Cl showed a logP of 3.53.
CCCCNC(=O)NS(=O)(=O)c1ccc(Cl)cc1 showed a logP of 2.81.
Work on Cc1n[nH]c(C(N)=O)c1[N+](=O)[O-] yielded a logP of -0.38.
CCCNC(=O)c1ccc(S(N)(=O)=O)cc1 gave a logP of 0.51.
With CCCCCC1(CC)C(=O)NC(=O)NC1=O the logP was 2.24.
With c1ccc2[se]ccc2c1 the logP was 3.19.
CCCOC(=O)C(C(=O)OCCC)=C1SC=CS1 gave a logP of 3.93.
In the case of Nc1ccc(C(=O)O)c(I)c1, the logP is reported as 1.65.
CC(C)(O)C(Cl)(Cl)Cl gave a logP of 2.03.
In the case of O=[N+]([O-])c1ccc(-c2ccccc2)cc1, the logP is reported as 3.82.
For CC(NNC(=O)COc1ccccc1)c1ccccc1 (stereo not drawn), the logP was 2.46.
With CCC1COC(Cn2cncn2)(c2ccc(-c3ccccc3)cc2)O1 (stereo not drawn) the logP was 3.71.
CCNNC(=O)COc1ccccc1 showed a logP of 1.
For CO[C@H]1[C@@H](O)C[C@H](O[C@H]2[C@@H](O)C[C@H](O[C@H]3[C@@H](O)C[C@H](O[C@H]4CC[C@@]5(C)[C@H](CC[C@@H]6[C@@H]5C[C@@H](O)[C@]5(C)[C@@H](C7=CC(=O)OC7)CC[C@]65O)C4)O[C@@H]3C)O[C@@H]2C)O[C@@H]1C, the logP was 1.8.
CC(=O)Nc1ccc2c(c1)[nH]c1ccccc12 gave a logP of 3.02.
C[C@]12CCC(=O)C=C1CC[C@@H]1[C@@H]2CC[C@]2(C)C(=O)CC[C@@H]12 gave a logP of 2.75.
Compound O=Cc1ccsc1 has a logP of 1.01.
In the case of CC(=O)Nc1cccc(NC(C)=O)c1, the logP is reported as 0.5.
CSc1ncc2ccccc2n1 gave a logP of 2.5.
